The nature of data set [1]: In vitro stability in mouse jejunum (intestinal) homogenate. The note with it: for In vitro stability in mouse (% remaining at 60 min) Intestinal homogenate: 10 μM. The format is in vitro ADME. As to the method: (§1) In addition to solubility, all prodrugs were screened for in vitro metabolic stability in mouse jejunum homogenate, liver microsomes and plasma (see Table 3) to characterize their bioconversion to MBZ. The screening paradigm was designed to confirm activation of prodrugs to MBZ following oral administration in these highly metabolic sites. Initial screening was done in mouse jejunum homogenate by incubating the compounds for 60 min. […] Following jejunum stability, the prodrugs were screened in mouse liver microsomes.
(§2) In vitro stability studies were done using mouse jejunum homogenate, mouse liver microsomes or naïve mouse plasma. For mouse jejunum homogenate stability study, washed mouse jejunum was diluted 10-fold in 0.1 M potassium phosphate buffer, and homogenized using probe sonication. Crude homogenate was then aliquoted to 1 mL and the homogenate was spiked with 10 μM of compound. Liver microsome stability assay was performed in 100 mM potassium phosphate buffer, pH 7.4, and reactions were initiated by addition of the liver microsomes to the incubation mixture (compound final concentration was 10 μM; 0.5 mg/mL microsomes). The plasma stability of the prodrugs was determined by spiking (10 μM) of prodrugs in 1 mL of plasma and incubating in an orbital shaker at 37° C. All the stability studies were conducted at predetermined times (0 and 60 min), where 100 μL aliquots of the mixture in triplicate were removed and the reaction was quenched by addition of three times the volume of ice cold acetonitrile spiked with the internal standard (losartan: 0.5 μM). The samples were vortex mixed for 30 sec and centrifuged at 10000×g for 10 min at 4° C. Fifty microliter of the supernatant was diluted with 50 μL water and transferred to a 2504 polypropylene vial sealed with a Teflon cap. Prodrug disappearance was monitored over time using liquid chromatography and tandem mass spectrometry (LC-MS/MS).
(§3) Briefly, prodrugs were analyzed on a Thermo Scientific Accela UPLC system coupled to Accela open autosampler at ambient temperature with an Agilent Eclipse Plus column (100×2.1 mm i.d.) packed with a 1.8 μm C18 stationary phase. The autosampler was temperature controlled and operated at 10° C. The mobile phase used for the chromatographic separation was composed of acetonitrile/water containing 0.1% formic acid and with a flow rate of 0.4 mL/min for 4.5 min using gradient elution. The column effluent was monitored using TSQ Vantage triple-quadrupole mass-spectrometric detector, equipped with an electrospray probe set in the positive ionization mode. Samples were introduced into the ionization source through a heated nebulized probe (350° C.). Disappearance of prodrugs was measured from ratio of peak areas of analyte to IS.

The nature of data set [2]: In vitro stability in mouse plasma. The note with it: for In vitro stability in mouse (% remaining at 60 min) Plasma: 10 μM, 37° C. It counts as in vitro ADME. Here is the method: as §1, §2, §3
A further data set can be described thus: physchem. The note with it: for solubility at 24 h: 37 °C, thermodynamic from solid; for fold improvement in solubility over MBZ-C: 24 h, pH 7.4. As to the method:
The aqueous solubility was determined as previously reported using the shake-flask procedure published by Zhou, et al., 2007. The compound was added to PBS buffer (0.01 M) and shaken for 24 h at 37° C. to ensure saturation. After 24 h, the solution was centrifuged (10,000 rpm, 2 min, RT) filtered (0.45 μm PTFE) and the filtrate was diluted appropriately (i.e. neat, 1/10, 1/100, 1/1000) and the concentration of compound was determined using LC/MS.

Data set [3] is described as follows: Chemical stability in PBS at 37° C. (LC-MS). Particulars: for chemical stability: aqueous environment / PBS. It counts as physicochemical. Here is the method: Prodrugs were also tested for chemical stability in 0.01 M PBS for 60 min at 37° C. by monitoring intact prodrug using LC-MS. […] Thus prodrug 14 was not assessed in assays due to its significant instability in PBS at pH 7.4.
Prodrug chemical stability was measured by the addition of 1 μL, of 10 mM DMSO stock solution to 1 mL of preheated (37° C.) […], resulting in a final concentration of 10 μM. The mixture was vortex mixed for 30 sec, and then incubated at 37° C. At specified time points 100 μL of the mixture was removed and extracted with 300 μL of cold acetonitrile (0° C.) with internal standard. This mixture was further diluted with 400 μL of water and the resulting solution was analyzed by LC-MS.

Data set [4] can be described thus: In vitro stability in mouse liver microsomes. The note with it: for In vitro stability in mouse (% remaining at 60 min) Liver microsomes: 10 μM, 0.5 mg/mL microsomes. It counts as in vitro ADME. As to the method: as §1, §2, §3
On the technique in general: Microsomes from liver hold many membrane-bound enzymes, among them those of drug oxidation.

The conditions of data set [5]: male, CD-1, mouse, in vivo, 30 mg/kg. As to the method:
(§4) All pharmacokinetic studies in mice were conducted according to protocols approved by the Animal Care and Use Committee at Johns Hopkins University. Male CD-1 mice between 25 and 30 g were obtained from Harlan, and maintained on a 12-h light-dark cycle with ad libitum access to food and water. […] The mice were sacrificed at specified time points post drug administration. For collection of plasma and brain tissue, animals were euthanized with CO2, and blood samples were collected in heparinized microtubes by cardiac puncture. Tissues were dissected and immediately flash frozen (−80° C.). Blood samples were spun at 2,000×g for 15 min, plasma was removed and stored at −80° C. until LC/MS analysis. Prior to extraction, frozen samples were thawed on ice. The calibration curves were developed using plasma and brain from naïve animals as a matrix. Plasma samples (50 μL), were processed using a single liquid extraction method by addition of 3004 of acetonitrile as with internal standard (losartan: 0.5 μM), followed by vortex mixing for 30 sec and then centrifugation at 10,000×g for 10 min at 4° C. For brain tissue, homogenized samples were vortex mixed and centrifuged as above. A 104 aliquot of supernatant was diluted with 35 µL of acetonitrile and mixed with 50 μL water containing 0.5 μM losartan as internal standard. Extracts were centrifuged at 10,000×g for 10 min at 4° C. Supernatants were transferred to 2504 polypropylene autosampler vials sealed with a Teflon cap. A volume of 34 was injected onto the ultra-performance liquid chromatography (UPLC) instrument for quantitative analysis by LC-MS/MS.
The a priori level of significance for all analyses was defined asp <0.05.

For data set [6] the following is noted: in vivo, po. As to the method: Brain concentrations of MBZ were also measured in tandem.
as §4

SMILES strings stand for the structures. Values after ≈ are worked out from the molar mass of the structure shown. A value given as a limit tells only on which side of the number the result lay.

Take `COC(=O)Nc1nc2cc(C(=O)c3ccccc3)ccc2n1COC(=O)C(C)(C)C` [Compound 1, (5-Benzoyl-2-((methoxycarbonyl)amino)-1H-benzo[d]imidazol-1-yl)methyl pivalate]: the “In vitro stability in mouse (% remaining at 60 min) Intestinal homogenate” value in data set [1] was determined as 37 ± 2%. In addition, the “In vitro stability in mouse (% remaining at 60 min) Plasma” value in data set [2] turned out to be 4 ± 0%.

A word on the solubility: it is the dissolved amount per volume that the medium holds. Lower therefore signals little dissolved substance. `COC(=O)Nc1nc2cc(C(=O)c3ccccc3)ccc2n1COC(=O)CNC(=O)[C@H](CC(C)C)NC(C)=O` [Compound 7, (5-Benzoyl-2-((methoxycarbonyl)amino)-1H-benzo[d]imidazol-1-yl)methyl acetyl-L-leucylglycinate] yielded a solubility at 24 h in the data set “physchem” (pH 7.4, aqueous buffer) of 85.5 µg/mL (≈ 159 µM). Further, in “physchem”, the “fold improvement in solubility over MBZ-C” value was “greater than 200 fold”. For the same molecule, the “chemical stability” value in data set [3] is listed as “sufficiently stable”. The “In vitro stability in mouse (% remaining at 60 min) Intestinal homogenate” value in data set [1] is recorded as 18 ± 1%. The “In vitro stability in mouse (% remaining at 60 min) Liver microsomes” value in data set [4] came out at 29 ± 1%. The “In vitro stability in mouse (% remaining at 60 min) Plasma” value in data set [2] came out at 0 ± 0%. Besides, the “MBZ plasma concentration at 1 h post oral administration” value (“MBZ plasma concentration” below) in data set [5] was determined as 8.72 ± 0.63 nmol/mL.

For `COC(=O)Nc1nc2cc(C(=O)c3ccccc3)ccc2n1COC(=O)CCC(=O)O` [Compound 8, 4-((5-Benzoyl-2-((methoxycarbonyl)amino)-1H-benzo[d]imidazol-1-yl)methoxy)-4-oxobutanoic acid], the concentration in solution in “physchem” (pH 7.4, aqueous buffer) (solubility at 24 h) came to 386 µg/mL (≈ 908 µM). The “fold improvement in solubility over MBZ-C” value in “physchem” is reported as “greater than 200 fold”. In addition, in data set [1], the “In vitro stability in mouse (% remaining at 60 min) Intestinal homogenate” value is reported as 30 ± 2%. In data set [4], the “In vitro stability in mouse (% remaining at 60 min) Liver microsomes” value came to 24 ± 0%. Further, the “In vitro stability in mouse (% remaining at 60 min) Plasma” value in data set [2] was found to be 78 ± 1%.

In the data set “physchem” (pH 7.4, aqueous buffer), `COC(=O)Nc1nc2cc(C(=O)c3ccccc3)ccc2n1COC(=O)OC[C@H]1OC(O)[C@H](O)[C@@H](O)[C@@H]1O` (stereo partly drawn) [Compound 9, Methyl (5-benzoyl-1-((((((2R,3S,4S,5R)-3,4,5,6-tetrahydroxytetrahydro-2H-pyran-2-yl)methoxy)carbonyl)oxy)methyl)-1H-benzo[d]imidazol-2-yl)carbamate] registered a solubility at 24 h of 220 µg/mL (≈ 414 µM). For the same molecule, in the data set “physchem”, the “fold improvement in solubility over MBZ-C” value is “greater than 200 fold”. Besides, in data set [1], the “In vitro stability in mouse (% remaining at 60 min) Intestinal homogenate” value is listed as 4 ± 0%. Also, the “In vitro stability in mouse (% remaining at 60 min) Liver microsomes” value in data set [4] came to 27 ± 0%. For the same molecule, the “In vitro stability in mouse (% remaining at 60 min) Plasma” value in data set [2] is on record as 18 ± 0%. In addition, in data set [2] (60 min incubation), the “metabolized in mouse plasma” value came out at 82%.

Regarding `COC(=O)Nc1nc2cc(C(=O)c3ccccc3)ccc2n1COP(=O)(O)O` [Compound 11, Methyl (5-benzoyl-1-((phosphonooxy)methyl)-1H-benzo[d]imidazol-2-yl)carbamate], in data set [1], the “In vitro stability in mouse (% remaining at 60 min) Intestinal homogenate” value is recorded as 35 ± 4%. In addition, the “In vitro stability in mouse (% remaining at 60 min) Liver microsomes” value in data set [4] amounted to 100 ± 2%. Also, the “stability in liver microsomes” value in data set [4] (60 min incubation) was “stable”. Also, in data set [2], the “In vitro stability in mouse (% remaining at 60 min) Plasma” value is 62 ± 1%. Also, the “MBZ plasma concentration” value in data set [5] turned out to be 8.53 ± 2.33 nmol/mL.

`COC(=O)Nc1nc2cc(C(=O)c3ccccc3)ccc2n1COP(=O)([O-])OCOC(=O)OC(C)C.[Na+]` [Compound 12, Methyl (5-benzoyl-1-(((hydroxy(((isopropoxycarbonyl)oxy)methoxy)phosphoryl)oxy)methyl)-1H-benzo[d]imidazol-2-yl)carbamate, sodium salt]: in the data set “physchem”, the “fold improvement in solubility over MBZ-C” value is > 10,000 fold. For the same molecule, in data set [1], the “stability in intestinal tissue homogenate” value was “unstable” and the “In vitro stability in mouse (% remaining at 60 min) Intestinal homogenate” value amounted to 1 ± 0%. For the same molecule, the “In vitro stability in mouse (% remaining at 60 min) Liver microsomes” value in data set [4] came out at 14 ± 0%. For the same molecule, in data set [2], the “In vitro stability in mouse (% remaining at 60 min) Plasma” value is reported as 73 ± 3%. In data set [5], the “MBZ plasma concentration” value turned out to be 10.35 ± 2.57 nmol/mL. In addition, in data set [5] (po, 1 h), the “fold improvement in plasma MBZ over MBZ-C” value is on record as 3.6 fold. For the same molecule, in data set [6] (male, CD-1, mouse, 30 mg/kg), the “AUC0-t (MBZ, plasma)” value stood at 27.9 µM·h; the “brain AUC0-t” value was 21.9 µM·h; the “fold enhanced plasma AUC0-t compared to MBZ-C” value amounted to 2.2 fold; the “fold increase in brain AUC0-t over MBZ-C” value turned out to be 1.7 fold. In addition, in data set [6] (mouse), the “intact prodrug in brain samples” value is “no intact prodrug was detected” and the “intact prodrug in plasma samples” value is reported as “no intact prodrug was detected”. The “AUC0-t (MBZ, brain)” value in data set [6] (mouse, 30 mg/kg) was 21.9 ± 2.0 nmol·h/g.

On to `COC(=O)Nc1nc2cc(C(=O)c3ccccc3)ccc2n1COC(=O)CC[C@H](N)C(=O)O` [Compound 14, (S)-2-Amino-5-((5-benzoyl-2-((methoxycarbonyl)amino)-1H-benzo[d]imidazol-1-yl)methoxy)-5-oxopentanoic acid], for which, in the data set “physchem” (pH 7.4, water), the solubility at 24 h came out at 451 µg/mL (≈ 992 µM). Moreover, the “chemical stability, % remaining at 60 min” value in data set [3] (0.01 M PBS, 37° C., 60 min) turned out to be 0%. Further, the “chemical stability” value in data set [3] is “too unstable”.

With `COC(=O)Nc1nc2cc(C(=O)c3ccccc3)ccc2n1C(C)OC(=O)C(C)(C)C` (stereo not drawn) [Compound 15, 1-(5-benzoyl-2-((methoxycarbonyl)amino)-1H-benzo[d]imidazol-1-yl)ethyl pivalate], the “In vitro stability in mouse (% remaining at 60 min) Intestinal homogenate” value in data set [1] was determined as 60%. Moreover, the “In vitro stability in mouse (% remaining at 60 min) Plasma” value in data set [2] came to 85%.

For the molecule `COC(=O)Nc1nc2cc(C(=O)c3ccccc3)ccc2n1C(OC(=O)C(C)(C)C)C(C)C` (stereo not drawn) [Compound 16, 1-(5-benzoyl-2-((methoxycarbonyl)amino)-1H-benzo[d]imidazol-1-yl)-2-methylpropyl pivalate], in data set [1], the “In vitro stability in mouse (% remaining at 60 min) Intestinal homogenate” value was 100%.

Take `COC(=O)Nc1nc2cc(C(=O)c3ccccc3)ccc2n1COP(=O)([O-])OC(C)OC(=O)OC(C)C.[Na+]` (stereo not drawn) [Compound 17, Methyl (5-benzoyl-1-(((hydroxy(((isopropoxycarbonyl)oxy)ethoxy)phosphoryl)oxy)methyl)-111-benzo[d]imidazol-2-yl)carbamate, sodium salt]: the “In vitro stability in mouse (% remaining at 60 min) Intestinal homogenate” value in data set [1] was 46%. In addition, the “In vitro stability in mouse (% remaining at 60 min) Liver microsomes” value in data set [4] is 82%. For the same molecule, the “In vitro stability in mouse (% remaining at 60 min) Plasma” value in data set [2] is reported as 89%.

(Values after patent US20210205271A1 (The Johns Hopkins University, priority 2018, published 2021).)
